Results as given in ChEMBL document CHEMBL1201862, “PubChem BioAssay data set” (2004).
Calls of active or inactive are those of the source.

Experiments:
Cytochrome P450 1A2 = target: T1, Cytochrome P450 1A2 (Homo sapiens, UniProt P05177);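 also: PubChem cytochrome P450 panel assay, CYP1A2 panel member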
T1 sequence (P05177 whole entry): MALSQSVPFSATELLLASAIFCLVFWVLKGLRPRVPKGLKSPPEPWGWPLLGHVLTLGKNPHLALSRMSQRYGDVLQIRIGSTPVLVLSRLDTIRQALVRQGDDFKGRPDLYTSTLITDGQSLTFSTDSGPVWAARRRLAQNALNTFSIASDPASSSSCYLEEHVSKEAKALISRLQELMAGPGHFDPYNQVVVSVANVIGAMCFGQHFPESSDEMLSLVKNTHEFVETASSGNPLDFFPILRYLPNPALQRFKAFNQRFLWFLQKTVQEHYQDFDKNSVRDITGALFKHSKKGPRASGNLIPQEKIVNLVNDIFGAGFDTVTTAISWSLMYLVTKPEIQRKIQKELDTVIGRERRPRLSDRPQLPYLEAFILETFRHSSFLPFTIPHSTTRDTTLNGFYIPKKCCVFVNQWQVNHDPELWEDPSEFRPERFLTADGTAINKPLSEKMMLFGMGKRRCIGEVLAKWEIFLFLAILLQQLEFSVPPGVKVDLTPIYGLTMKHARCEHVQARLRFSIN

Cytochrome P450 2C9 = Cytochrome P450 2C9 (Homo sapiens, UniProt P11712)
Sequence of Cytochrome P450 2C9 (P11712 whole entry): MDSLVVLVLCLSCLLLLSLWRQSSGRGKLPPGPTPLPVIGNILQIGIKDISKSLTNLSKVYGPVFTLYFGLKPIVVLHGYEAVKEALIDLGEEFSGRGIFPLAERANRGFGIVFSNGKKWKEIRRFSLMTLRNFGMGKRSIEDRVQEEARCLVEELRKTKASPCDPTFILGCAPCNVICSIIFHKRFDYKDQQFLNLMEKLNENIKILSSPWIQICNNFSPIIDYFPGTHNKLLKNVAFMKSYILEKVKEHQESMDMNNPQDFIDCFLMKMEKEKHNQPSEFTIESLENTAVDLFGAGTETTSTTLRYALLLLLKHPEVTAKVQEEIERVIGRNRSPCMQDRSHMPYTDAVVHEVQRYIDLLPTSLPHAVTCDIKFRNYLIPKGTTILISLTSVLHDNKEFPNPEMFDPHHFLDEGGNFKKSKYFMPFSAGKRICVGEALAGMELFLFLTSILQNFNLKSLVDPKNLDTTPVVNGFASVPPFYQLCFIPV

Cytochrome P450 2D6 = Cytochrome P450 2D6 (Homo sapiens, UniProt P10635);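 also: CYP2D6 member of a cytochrome P450 panel assay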
Sequence of Cytochrome P450 2D6 (P10635 whole entry): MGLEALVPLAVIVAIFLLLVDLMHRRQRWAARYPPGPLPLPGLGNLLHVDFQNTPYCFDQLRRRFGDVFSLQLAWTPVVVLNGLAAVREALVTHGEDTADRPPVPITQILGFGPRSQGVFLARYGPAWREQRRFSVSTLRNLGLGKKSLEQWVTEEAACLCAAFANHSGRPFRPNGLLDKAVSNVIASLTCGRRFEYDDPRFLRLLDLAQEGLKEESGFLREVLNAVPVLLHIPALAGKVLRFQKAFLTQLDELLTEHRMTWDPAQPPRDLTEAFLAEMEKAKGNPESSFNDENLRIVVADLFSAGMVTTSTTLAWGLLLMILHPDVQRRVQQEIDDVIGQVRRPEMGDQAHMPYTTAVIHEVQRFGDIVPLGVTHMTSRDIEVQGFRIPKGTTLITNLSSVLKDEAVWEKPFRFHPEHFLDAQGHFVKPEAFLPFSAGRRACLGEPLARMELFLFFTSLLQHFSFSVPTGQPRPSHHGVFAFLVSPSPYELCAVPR

Cytochrome P450 3A4 = Cytochrome P450 3A4 (Homo sapiens, UniProt P08684);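 also: CYP3A4 tested as one member of a cytochrome P450 panel screen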
Sequence of Cytochrome P450 3A4 (P08684 whole entry): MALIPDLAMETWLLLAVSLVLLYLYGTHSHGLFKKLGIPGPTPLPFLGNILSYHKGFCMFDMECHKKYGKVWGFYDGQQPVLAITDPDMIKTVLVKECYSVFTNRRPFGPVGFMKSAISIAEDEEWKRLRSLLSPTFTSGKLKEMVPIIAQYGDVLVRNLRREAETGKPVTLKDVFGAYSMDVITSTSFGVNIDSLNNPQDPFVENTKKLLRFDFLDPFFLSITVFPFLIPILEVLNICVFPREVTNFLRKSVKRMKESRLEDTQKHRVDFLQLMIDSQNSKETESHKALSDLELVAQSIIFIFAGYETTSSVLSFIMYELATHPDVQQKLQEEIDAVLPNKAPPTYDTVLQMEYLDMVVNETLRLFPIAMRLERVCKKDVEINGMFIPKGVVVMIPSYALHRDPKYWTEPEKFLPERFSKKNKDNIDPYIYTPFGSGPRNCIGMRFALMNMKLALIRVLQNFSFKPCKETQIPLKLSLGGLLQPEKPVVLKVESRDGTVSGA

Estrogen receptor beta [1] = target: T2, Estrogen receptor beta (Homo sapiens, UniProt Q92731); experiment: ERβ–SRC-3 coactivator interaction inhibitors, confirmation, orthogonal assay, biochemical, ELISA, streptavidin-HRP readout (AID 1060)
T2 sequence (Q92731 whole entry): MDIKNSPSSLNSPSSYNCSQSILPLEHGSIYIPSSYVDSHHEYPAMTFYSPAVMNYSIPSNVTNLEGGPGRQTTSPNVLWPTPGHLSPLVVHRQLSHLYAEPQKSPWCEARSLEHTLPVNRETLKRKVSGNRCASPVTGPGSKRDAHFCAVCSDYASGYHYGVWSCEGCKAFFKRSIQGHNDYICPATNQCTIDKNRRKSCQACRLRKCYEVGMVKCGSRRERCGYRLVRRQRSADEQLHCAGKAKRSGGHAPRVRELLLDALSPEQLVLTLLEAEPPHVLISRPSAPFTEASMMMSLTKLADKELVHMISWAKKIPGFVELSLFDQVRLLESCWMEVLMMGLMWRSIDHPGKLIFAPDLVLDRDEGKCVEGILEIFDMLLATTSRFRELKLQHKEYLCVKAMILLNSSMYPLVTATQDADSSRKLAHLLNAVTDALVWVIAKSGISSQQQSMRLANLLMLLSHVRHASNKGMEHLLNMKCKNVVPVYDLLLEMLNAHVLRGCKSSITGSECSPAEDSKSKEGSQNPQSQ

Bcl-2-like protein 10 = target: T3, Bcl-2-like protein 10 (Homo sapiens, UniProt Q9HD36); experiment: displacers of TR3 peptide from Bcl-B, primary screen, selectivity assay for Bfl-1 inhibitor project, biochemical, fluorescence polarization, FITC-TR3 peptide (AID 748);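 also: fluorescence polarization from a fluorescein-labelled TR3 peptide binding purified Bcl-B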
T3 sequence (Q9HD36 whole entry): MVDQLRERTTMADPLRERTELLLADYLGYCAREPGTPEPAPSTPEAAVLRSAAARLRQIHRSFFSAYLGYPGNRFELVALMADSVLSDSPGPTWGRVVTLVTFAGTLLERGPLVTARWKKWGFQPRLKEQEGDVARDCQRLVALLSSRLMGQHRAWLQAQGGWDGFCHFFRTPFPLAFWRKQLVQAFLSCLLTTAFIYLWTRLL

[2] = target: T4, Dual specificity protein phosphatase 6 (Rattus norvegicus, UniProt Q64346); type: functional
T4 sequence (Q64346 whole entry): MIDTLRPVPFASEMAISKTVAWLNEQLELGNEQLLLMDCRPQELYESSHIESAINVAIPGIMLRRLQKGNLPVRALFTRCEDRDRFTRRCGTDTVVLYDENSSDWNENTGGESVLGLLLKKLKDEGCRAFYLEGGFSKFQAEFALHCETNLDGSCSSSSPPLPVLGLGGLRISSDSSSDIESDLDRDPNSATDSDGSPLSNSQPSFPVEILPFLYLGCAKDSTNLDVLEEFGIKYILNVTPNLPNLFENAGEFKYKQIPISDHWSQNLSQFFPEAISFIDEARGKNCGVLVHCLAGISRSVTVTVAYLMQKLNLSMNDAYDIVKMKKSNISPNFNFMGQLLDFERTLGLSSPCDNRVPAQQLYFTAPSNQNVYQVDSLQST

[3] = target: Glyceraldehyde-3-phosphate dehydrogenase (Homo sapiens, UniProt P04406)
Sequence of Glyceraldehyde-3-phosphate dehydrogenase (P04406 whole entry): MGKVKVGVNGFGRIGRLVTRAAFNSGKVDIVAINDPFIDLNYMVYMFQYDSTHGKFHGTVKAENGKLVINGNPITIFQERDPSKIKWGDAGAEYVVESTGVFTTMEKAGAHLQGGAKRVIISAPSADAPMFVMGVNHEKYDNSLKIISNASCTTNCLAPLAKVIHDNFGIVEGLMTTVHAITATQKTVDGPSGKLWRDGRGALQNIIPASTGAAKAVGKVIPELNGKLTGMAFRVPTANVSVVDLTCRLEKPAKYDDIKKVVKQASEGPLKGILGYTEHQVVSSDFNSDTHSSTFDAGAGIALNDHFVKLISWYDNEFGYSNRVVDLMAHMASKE

Estrogen receptor beta [4] = target: T2, Estrogen receptor beta
[5] = target: T5, Tyrosine-protein phosphatase non-receptor type 7 (Homo sapiens, UniProt P35236); type: functional
T5 sequence (P35236 whole entry): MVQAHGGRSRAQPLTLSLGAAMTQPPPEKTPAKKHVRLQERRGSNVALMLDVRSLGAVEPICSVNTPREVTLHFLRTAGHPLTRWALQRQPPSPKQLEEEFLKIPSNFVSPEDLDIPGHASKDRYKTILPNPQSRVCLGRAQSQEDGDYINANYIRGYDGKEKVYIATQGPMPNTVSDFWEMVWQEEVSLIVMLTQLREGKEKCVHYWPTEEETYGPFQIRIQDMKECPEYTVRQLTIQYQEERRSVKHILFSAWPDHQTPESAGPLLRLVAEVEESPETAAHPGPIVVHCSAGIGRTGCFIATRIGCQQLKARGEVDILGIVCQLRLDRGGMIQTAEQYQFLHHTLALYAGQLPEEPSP

[6] = target: T4, Dual specificity protein phosphatase 6
[7] = target: T6, Carboxy-terminal domain RNA polymerase II polypeptide A small phosphatase 1 (Homo sapiens, UniProt Q9GZU7); experiment: inhibitors of CTDSP1, concentration-response testing, biochemical assay, absorbance-based, actives from ultra-high-throughput screening (AID 540297); type: functional
T6 sequence (Q9GZU7 whole entry): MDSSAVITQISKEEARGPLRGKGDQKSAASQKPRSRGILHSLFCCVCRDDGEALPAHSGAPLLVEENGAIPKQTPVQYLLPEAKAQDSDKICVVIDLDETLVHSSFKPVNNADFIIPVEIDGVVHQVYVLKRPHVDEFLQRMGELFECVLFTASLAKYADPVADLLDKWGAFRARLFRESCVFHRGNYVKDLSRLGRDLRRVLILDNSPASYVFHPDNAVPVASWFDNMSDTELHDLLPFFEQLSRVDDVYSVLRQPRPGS

CHO = experiment: cytotoxicity in TLR9-MyD88 CHO cells, dose response, cytotoxicity control for TLR9-MyD88 binding inhibitor project, cell-based, luminescence (AID 588339); type: functional, hamster; settings: Cricetulus griseus;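 also: CHO cells stably coexpressing TLR9 and MyD88 fusions from primary screen; compound exposure lasted 48 hours before viability readout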
[8] = target: T7, Endoribonuclease toxin MazF (Escherichia coli K-12, UniProt P0AE70); experiment: fluorescent RNA oligo signal without MazF, dose response, counter-screen for MazEF activator project, biochemical, fluorescence, single-stranded RNase substrate (AID 588502); type: functional
T7 sequence (P0AE70 whole entry): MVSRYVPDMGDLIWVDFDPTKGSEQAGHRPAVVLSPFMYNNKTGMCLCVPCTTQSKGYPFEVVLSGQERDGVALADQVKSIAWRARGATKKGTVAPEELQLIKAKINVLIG

Beta Lactamase = Beta Lactamase (Pseudomonas aeruginosa, UniProt Q932Y6); experiment: beta-lactamase reporter inhibitor potency, dose response, artefact control for TLR9-MyD88 binding inhibitor project, BLA reporter cells, FRET fluorescence (AID 588341); type: cell-based;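 also: cell based assay in CHO-K1 cells stably expressing beta-lactamase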
Sequence of Beta Lactamase (Q932Y6 whole entry): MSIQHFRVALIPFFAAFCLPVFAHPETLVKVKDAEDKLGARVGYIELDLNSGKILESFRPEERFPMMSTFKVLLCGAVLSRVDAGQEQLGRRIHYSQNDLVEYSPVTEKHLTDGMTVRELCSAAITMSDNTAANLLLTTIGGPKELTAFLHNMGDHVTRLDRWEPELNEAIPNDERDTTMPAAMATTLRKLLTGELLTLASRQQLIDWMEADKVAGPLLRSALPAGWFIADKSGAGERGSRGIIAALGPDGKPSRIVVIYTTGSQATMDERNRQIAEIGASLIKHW

[9] = target: T7, Endoribonuclease toxin MazF; experiment: MazF toxin RNase activators, dose response, biochemical, fluorescence, single-stranded RNA substrate, uHTS hits (AID 588481); type: functional

**Q.** O=P(O)(CP(=O)(c1ccccc1)c1ccccc1)c1ccccc1O was tested. Which AC50 (Cytochrome P450 1A2) did it give?
**A.** 28.2 µM (inconclusive)

**Q.** What about the AC50 (Cytochrome P450 2C9) of the same molecule?
**A.** 100 nM (inconclusive)

**Q.** And the AC50 (Cytochrome P450 2D6)?
**A.** inconclusive

**Q.** What about the AC50 (Cytochrome P450 3A4) of the same molecule?
**A.** 17.8 µM (inconclusive)

**Q.** What does the source list for CCCCCc1nnc(NC(=O)Cc2cccs2)s1?
**A.** IC50 (Estrogen receptor beta [1]): > 50 µM (not active); IC50 (Bcl-2-like protein 10): 12.5 µM (active); IC50 [2]: 17.2 µM (active); IC50 [3]: 98.6 µM (active); IC50 (Estrogen receptor beta [4]): < 1.56 µM (active); IC50 [5]: 6.28 µM (active); IC50 [6]: 21.4 µM (active); IC50 [7]: 3.73 µM (active)

**Q.** CC1C/C(=C/c2cccn2C)C(=O)/C(=C/c2cccn2C)C1 (stereo unspecified) was tested. Which IC50 (CHO) did it give?
**A.** > 49.7 µM (inactive)

**Q.** What about the EC50 [8] of the same molecule?
**A.** > 99 µM (inactive)

**Q.** And the IC50 (Beta Lactamase)?
**A.** 4.39 µM (active)

**Q.** What about the EC50 [9] of the same molecule?
**A.** > 99 µM (inactive)
